Earlier results on one compound are cited in patent US20220218780A1, “Composition for Improving Vascular Endothelial Function or Improving Blood Flow in Peripheral Blood Vessels” (House Wellness Foods Corporation, priority 2018, published 2022).

This data set deals with vascular endothelial function. Particulars: diabetes rat models, continuous oral administration every day, 30 mg/kg and 300 mg/kg body weight.

Molecules are shown by their SMILES.

For the compound `COc1cc(/C=C/C(=O)CC(=O)/C=C/c2ccc(O)c(OC)c2)ccc1O` [curcumin], the “reduction in vascular endothelial function associated with diabetes” value is listed as “improved”.
